# System: participants with major depressive disorder (MDD)
# Assay: Treatment-emergent adverse events (safety), study NCT04476030
# Format: in vivo, human
# Details: one patient, approximately 1 hour after Compound (1) 50 mg on Day 7
# Procedure: A randomized, double-blind, parallel-group, active/placebo-controlled study (NCT04476030) in participants with major depressive disorder (MDD) was conducted. The study evaluated the efficacy and safety of Compound (1) 50 mg co-initiated with standard-of-care (SOC) antidepressant therapies (ADTs) (Compound (1)+ADT) vs placebo co-initiated with SOC ADT (placebo+ADT) in adults with MDD. Patients were randomized 1:1 to once-daily, blinded Compound (1)+ADT or placebo+ADT for 14 days then continued open-label SOC ADT for 28 more days.
# An AE could therefore be any unfavorable and unintended sign (including an abnormal laboratory finding), symptom or disease temporally associated with the use of a medicinal (investigational) product whether or not related to the medicinal (investigational) product. In clinical studies, an AE could include an undesirable medical condition occurring at any time, including baseline or washout periods, even if no study treatment had been administered.
# A treatment emergent adverse event (TEAE) was defined as an AE with onset after the start of investigational product (IP; Compound (1) or placebo), or any worsening of a pre-existing medical condition/AE with onset after the start of IP and throughout the study. The term IP included any Sage IP, a comparator, or a placebo administered in a clinical study. […]
row,Structure (SMILES),Investigator-assessed relationship of serious TEAE (seizure-like phenomena) to study drug
1,"C[C@@]1(O)CC[C@H]2[C@H](CC[C@@H]3[C@@H]2CC[C@]2(C)[C@@H](C(=O)Cn4cc(C#N)cn4)CC[C@@H]32)C1 [Compound (1), 1-(2-((3R,5R,8R,9R,10S,13S,14S,17S)-3-hydroxy-3,13-dimethylhexadecahydro-1H-cyclopenta[a]phenanthren-17-yl)-2-oxoethyl)-1H-pyrazole-4-carbonitrile]",related

# System: patients with major depressive disorder
# Assay: not given
# Details: MDD patients, meta-analysis; cited from earlier work
Structure (SMILES),Rates of gastrointestinal adverse reactions compared to placebo,Tolerability on the gastrointestinal tract among antidepressants
COc1ccc2cccc(CCNC(C)=O)c2c1 [agomelatine],higher rates,–
CC(NC(C)(C)C)C(=O)c1cccc(Cl)c1 (centres unmarked) [bupropion],higher rates,–
CN(C)CCCC1(c2ccc(F)cc2)OCc2cc(C#N)ccc21 (centres unmarked) [citalopram],higher rates,–
CN(C)CC(c1ccc(O)cc1)C1(O)CCCCC1 (centres unmarked) [desvenlafaxine],higher rates,–
CNCC[C@H](Oc1cccc2ccccc12)c1cccs1 [duloxetine],higher rates,–
CN(C)CCC[C@@]1(c2ccc(F)cc2)OCc2cc(C#N)ccc21 [escitalopram],higher rates,least tolerated
CNCCC(Oc1ccc(C(F)(F)F)cc1)c1ccccc1 (centres unmarked) [fluoxetine],higher rates,–
COCCCC/C(=N\OCCN)c1ccc(C(F)(F)F)cc1 [fluvoxamine],higher rates,–
CCN(CC)C(=O)[C@@]1(c2ccccc2)C[C@H]1CN [levomilnacipran],higher rates,–
CN1CCN2c3ncccc3Cc3ccccc3C2C1 (centres unmarked) [mirtazapine],higher rates,–
Fc1ccc([C@@H]2CCNC[C@H]2COc2ccc3c(c2)OCO3)cc1 [paroxetine],higher rates,–
CCOc1ccccc1OC(c1ccccc1)C1CNCCO1 (centres unmarked) [reboxetine],higher rates,–
CN[C@H]1CC[C@@H](c2ccc(Cl)c(Cl)c2)c2ccccc21 [sertraline],higher rates,least tolerated
COc1ccc(C(CN(C)C)C2(O)CCCCC2)cc1 (centres unmarked) [venlafaxine],higher rates,–
Cc1ccc(Sc2ccccc2N2CCNCC2)c(C)c1 [vortioxetine],higher rates,–

# System: not given
# Assay: not given
# Details: compared to SSRIs and duloxetine; cited from earlier work
row,Structure (SMILES),Rates of nausea and vomiting
1,COc1ccc(C(CN(C)C)C2(O)CCCCC2)cc1 (centres unmarked) [venlafaxine],higher rates

# Same assay, conditions: compared to other SSRIs and venlafaxine; cited from earlier work
row,Structure (SMILES),Incidence of diarrhea
1,CN[C@H]1CC[C@@H](c2ccc(Cl)c(Cl)c2)c2ccccc21 [sertraline],higher incidence

# — US20250177418A1, “NEUROACTIVE STEROIDS FOR TREATMENT OF GASTROINTESTINAL DISEASES OR CONDITIONS” (Sage Therapeutics, Inc., priority 2022, published 2025)
